From patent US12195427B2, “MASP-2 inhibitors and methods of use” (priority 2018, dated 2025)

Assays:
[1] = molecular target: human α-thrombin (Homo sapiens (Human), UniProt P00734); experiment: Enzymatic Assay for Thrombin (Boc-VPR-AMC); assay type: biochemical
[2] = molecular target: MASP-2 (CCP1-CCP2-SP) (Homo sapiens (Human), UniProt O00187); experiment: Enzymatic Assay for MASP-2 (fluorogenic substrate); assay type: biochemical
[3] = molecular target: MASP-2 CCP2-SP (Homo sapiens (Human), UniProt O00187); experiment: MASP-2 co-crystallization, X-ray crystallography and structure analysis (H-bonds, van der Waals contacts); parameters: van der Waals contact distance, MASP-2 HIS 483 atom CD2 / van der Waals contact distance, MASP-2 HIS 483 atom NE2 / van der Waals contact distance, SER 654 C to compound atom / van der Waals contact distance, SER 654 O to compound atom / van der Waals contact distance, TRP 655 C to compound atom / van der Waals contact distance, MASP-2 GLY 528 atom CA / van der Waals contact distance TRP 655 atom CZ3 / van der Waals contact distance TRP 655 atom N / van der Waals contact distance TRP 655 atom CE3 / van der Waals contact distance GLY 656 atom C / van der Waals contact distance GLY 656 atom CA / van der Waals contact distance GLY 656 atom O / van der Waals contact distance, MASP-2 TYR 607 atom CD1 / van der Waals contact distance, MASP-2 PRO 606 atom O / d(C3,CA1) / d(CA1,N1)2 / d(H4,O1) / d(H4,O2) / d(O1,O2) / d(CA1,O2) / d(CA6,O1) / d(CA6,O2) / d(CA1,C5) / d(O2,H3) / d(N2,C2) / d(CA5,N2) / d(N2,C4) / d(N2,C6) / d(N2,CA3) / d(N2,O3) / d(O4,H2): unit not given beside the values;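 for Ligand-pharmacophore element distance, pharmacophore element C2: distance from averaged pharmacophore element to bound ligand; missing value means element absent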;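 for Ligand-pharmacophore element distance, pharmacophore element C3: distance from averaged pharmacophore element to bound ligand; missing value means element absent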;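 for Ligand-pharmacophore element distance, pharmacophore element C4: distance from averaged pharmacophore element to bound ligand; missing value means element absent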;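 for Ligand-pharmacophore element distance, pharmacophore element C5: distance from averaged pharmacophore element to bound ligand; missing value means element absent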
Outline: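 Human MASP-2 CCP2-SP, untagged or 6His-tagged, was expressed in E. coli and crystallized. Crystals were soaked with inhibitor in crystallization solution, flash-cooled in liquid nitrogen, and diffracted with synchrotron X-rays (wavelength 1.0). Structures were solved by molecular replacement from 1Q3X and partially refined.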

[4] = Table A5-1 pharmacophore: distance between elements, S2/S1 region
[5] = Table A5-2 pharmacophore distance, S3/S4 region
[6] = Table A7-1, between pharmacophore elements of the bound compound
[7] = Table A8-6, nearest protein atom in cell to the left

MASP-2 CCP2-SP, sequence (O00187 445-686): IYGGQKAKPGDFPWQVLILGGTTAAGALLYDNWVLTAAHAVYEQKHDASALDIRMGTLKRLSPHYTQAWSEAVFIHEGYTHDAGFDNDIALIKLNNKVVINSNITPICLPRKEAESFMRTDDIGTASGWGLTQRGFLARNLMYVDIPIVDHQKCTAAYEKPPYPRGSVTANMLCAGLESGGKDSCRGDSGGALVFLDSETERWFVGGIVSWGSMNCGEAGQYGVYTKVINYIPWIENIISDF
MASP-2 CCP2-SP, sequence (O00187 364-432 partner): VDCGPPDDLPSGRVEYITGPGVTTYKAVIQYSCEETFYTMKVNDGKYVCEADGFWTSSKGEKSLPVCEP
MASP-2 (CCP1-CCP2-SP), sequence (O00187 445-686): as the sequence (O00187 445-686) above

C[C@H](NC(=O)[C@H](N)CCc1ccccc1)C(=O)NCc1ccc(C(=N)N)cc1 [compound 1024] was tested, and the Ki [1] was under 500 nM, the Ki [2] was under 500 nM and the “H-bond distance to MASP-2 ASP 627 atom OD1” value ([3]; Table A1 (H-Bonds), ASP 627 OD1) was 2.74. The “H-bond distance to MASP-2 GLY 656 atom N” value ([3]; Table A1 (H-Bonds), GLY 656 N) was 3.06, the “H-bond distance to MASP-2 SER 628 atom O” value ([3]; Table A1 (H-Bonds), SER 628 O) was 2.79 and the “H-bond distance to MASP-2 SER 654 atom O” value ([3]; Table A1 (H-Bonds), SER 654 O) was 2.86. The “H-bond distance to MASP-2 SER 657 atom O” value ([3]; Table A1 (H-Bonds), SER 657 O) was 2.94, the “van der Waals contact distance, MASP-2 HIS 483 atom CD2” value ([3]; Table A2-1) was 3.39 and the “van der Waals contact distance, MASP-2 TYR 607 atom CD1” value ([3]; Table A2-4) was 3.9. For the same molecule, the “van der Waals contact distance, MASP-2 amino acid atom to compound atom” value ([3]; Table A2-7 continued: CYS 629 (CA)) was 3.75, the “van der Waals contact distance GLY 656 atom C” value ([3]; Table A2-13, MASP-2 GLY 656 C) was 3.53 and the “van der Waals contact distance TRP 655 atom CZ3” value ([3]; Table A2-13, MASP-2 TRP 655 CZ3) was 3.86. The “van der Waals contact distance TRP 655 atom N” value ([3]; Table A2-13, MASP-2 TRP 655 N) was 3.78, the “van der Waals contact distance TRP 655 atom O” value ([3]; Table A2-13, MASP-2 TRP 655 O) was 3.59 and the “van der Waals contact distance SER 657 atom C” value ([3]; Table A2-14, MASP-2 SER 657 C, columns c12-c13 (inferred)) was 3.77. The “Ligand-pharmacophore element distance, pharmacophore element C2” value ([3]; Table A4-1, element C2) was 0, the “Ligand-pharmacophore element distance, pharmacophore element C3” value ([3]; Table A4-1, element C3) was 0 and the “Ligand-pharmacophore element distance, pharmacophore element C4” value ([3]; Table A4-1, element C4) was 0. The “Ligand-pharmacophore element distance, pharmacophore element C5” value ([3]; Table A4-1, element C5) was 0, the “Ligand-pharmacophore element distance, pharmacophore element C6” value ([3]; Table A4-1, element C6) was 0 and the “Ligand-pharmacophore element distance, pharmacophore element C7” value ([3]; Table A4-1, element C7) was 0. For the same molecule, the “Ligand-pharmacophore element distance, pharmacophore element CA1” value ([3]; Table A4-1, element CA1) was 0.4, the “Ligand-pharmacophore element distance, pharmacophore element CA2” value ([3]; Table A4-1, element CA2) was 0.33 and the “Ligand-pharmacophore element distance, pharmacophore element CA3” value ([3]; Table A4-1, element CA3) was 0. The “Ligand-pharmacophore element distance, pharmacophore element CA4” value ([3]; Table A4-1, element CA4) was 0, the “Ligand-pharmacophore element distance, pharmacophore element CA5” value ([3]; Table A4-1, element CA5) was 0 and the “Ligand-pharmacophore element distance, pharmacophore element CA6” value ([3]; Table A4-1, element CA6) was 0. The “Ligand-pharmacophore element distance, pharmacophore element H1” value ([3]; Table A4-2, element H1) was 0, the “Ligand-pharmacophore element distance, pharmacophore element H2” value ([3]; Table A4-2, element H2) was 0 and the “Ligand-pharmacophore element distance, pharmacophore element H3” value ([3]; Table A4-2, element H3) was 4.93. For the same molecule, the “Ligand-pharmacophore element distance, pharmacophore element H4” value ([3]; Table A4-2, element H4) was 3.21, the “Ligand-pharmacophore element distance, pharmacophore element N1” value ([3]; Table A4-2, element N1) was 1.74 and the “Ligand-pharmacophore element distance, pharmacophore element N2” value ([3]; Table A4-2, element N2) was 0.59. For the same molecule, the “Ligand-pharmacophore element distance, pharmacophore element O1” value ([3]; Table A4-2, element O1) was 0.4, the “Ligand-pharmacophore element distance, pharmacophore element O2” value ([3]; Table A4-2, element O2) was 0.4 and the “Ligand-pharmacophore element distance, pharmacophore element O3” value ([3]; Table A4-2, element O3) was 0. The “Ligand-pharmacophore element distance, pharmacophore element O4” value ([3]; Table A4-2, element O4) was 0, the “d(CA1,N1)” value [3, 4] was 3.55 and the “d(CA1,O1)” value [3, 4] was 4.37. For the same molecule, the “d(CA1,O2)” value [3, 4] was 4.23, the “d(H4,O1)” value [3, 4] was 3.99 and the “d(H4,O2)” value [3, 4] was 3.27. For the same molecule, the “d(O1,O2)” value [3, 4] was 3.23, the “d(N2,CA2)” value [3, 5] was 6.19 and the “d(O2,H3)” value [3, 5] was 5.45. For the same molecule, the “d(O2,N2)” value [3, 5] was 2.78, the “a(CA1, O1, O2)” value ([3]; Table A6-1 pharmacophore angle) was 109.78 and the “a(O1, O2, H4)” value ([3]; Table A6-1 pharmacophore angle) was 128.26. For the same molecule, the “A(N1, CA1, O1) a)” value ([3]; Table A6-1 pharmacophore angle, all compounds with protonatable center N1 except Methyl-amino-pyridine) was 163.32, the “a(O1, O2, H3)” value ([3]; Table A6-2 pharmacophore angle) was 151.79 and the “a(O1, O2, N2)” value ([3]; Table A6-2 pharmacophore angle) was 136.56. For the same molecule, the “a(O2, N2, CA2)” value ([3]; Table A6-2 pharmacophore angle) was 154.55, the “Pharmacophore torsion angle a(H4, O1, O2, H3)” value [3, 6] was 44.69 and the “Pharmacophore torsion angle a(H4, O1, O2, N2)” value [3, 6] was 125.09. For the same molecule, the “Pharmacophore torsion angle a(N1, CA1, O2, H4)” value [3, 6] was −97.21, the “Pharmacophore torsion angle a(O1, H4, O2, CA1)” value [3, 6] was −63.40 and the “Pharmacophore torsion angle a(O1, O2, N2, CA2)” value ([3]; Table A7-2, between pharmacophore elements of the bound compound) was 139.71. The “Pharmacophore protein distance to MET_658 (first MET_658 column)” value ([3]; Table A8-6, 6th residue column, nearest protein atom in cell to the left) was 1.94, the “Pharmacophore protein distance to MET_658 (second MET_658 column)” value ([3]; Table A8-6, 9th residue column, nearest protein atom in cell to the left) was 3.26 and the “Pharmacophore protein distance to GLY_528” value [3, 7] was 3.60. For the same molecule, the “Pharmacophore protein distance to PHE_529” value [3, 7] was 3.20, the “Pharmacophore protein distance to PRO_608” value [3, 7] was 3.95 and the “Pharmacophore protein distance to SER_611” value [3, 7] was 2.54. For the same molecule, the “Pharmacophore protein distance to TRP_655” value ([3]; Table A8-6, pharmacophore elements C6, CA3, O3, H1, nearest protein atom in cell to the left) was 3.53.
